Data taken from PubChem BioAssay (NCI).
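Five compound concentrations were applied to cells in 96-well plates for 48 hours; endpoints were derived by simple linear interpolation of the resulting dose-response curve. The concentration for 50% growth inhibition is given as GI50. TGI: concentration producing complete growth inhibition.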

How the values were obtained:
Experiment in all cases: inhibition of tumour cell growth, NCI panel, 48 h
[1] = system: TK-10 renal
[2] = system: 786-0 renal
[3] = system: SF-539 CNS
[4] = system: EKVX NSCLC
[5] = system: A549 NSCLC
[6] = system: OVCAR-8 ovarian
[7] = system: KM12 colon
[8] = system: NCI-H522 lung
[9] = system: SK-MEL-2 melanoma
[10] = system: CCRF-CEM leukemia

Structure (SMILES)	TGI [1]	TGI [2]	TGI [3]	TGI [4]	TGI [5]	GI50 [6]	TGI [6]	GI50 [7]	TGI [7]	GI50 [8]	TGI [8]	TGI [9]	GI50 [10]	TGI [10]	GI50 [1]	GI50 [2]	GI50 [3]	GI50 [4]	GI50 [5]	GI50 [9]
C=CC(=O)N1C/C(=C\c2ccccc2)C(=O)/C(=C/c2ccccc2)C1	7 µM	2.54 µM	3.69 µM	9.42 µM	9 µM	0.8 µM	4.94 µM	0.443 µM	2.4 µM	0.348 µM	3.49 µM	4.81 µM	0.927 µM	3.55 µM	–	–	–	–	–	–
O=C(CSc1nc2ccccc2nc1-c1ccccc1)Nc1ccc(Cl)cc1	> 100 µM	32.3 µM	36.6 µM	> 100 µM	> 100 µM	25.5 µM	> 100 µM	59.4 µM	> 100 µM	15.3 µM	74.3 µM	> 100 µM	> 100 µM	> 100 µM	35.9 µM	16 µM	16.3 µM	49.5 µM	32 µM	51.7 µM
Sc1ccc2ccccc2c1CNCc1ccccc1	> 100 µM	37 µM	29.3 µM	78.3 µM	> 100 µM	–	65.8 µM	–	30.8 µM	–	18.3 µM	45.5 µM	–	54.1 µM	–	–	–	–	–	–
CC(C)C1C(=O)NC(CO)Cc2c[nH]c3c(C(c4c[nH]c5ccccc45)C(O)CO)ccc(c23)N1C (stereo unspecified)	> 100 µM	> 100 µM	> 100 µM	> 100 µM	> 100 µM	–	> 100 µM	–	> 100 µM	–	> 100 µM	> 100 µM	–	> 100 µM	–	–	–	–	–	–
Cc1ccc2[nH]c3c(C)c4c(c(C)c3c2c1)CN(C)C=C4	21.9 µM	10.5 µM	1.62 µM	10 µM	2.99 µM	–	9.01 µM	–	2.4 µM	–	1.38 µM	3.2 µM	2.33 µM	22 µM	–	–	–	–	–	–
C#Cc1c(C)c(/C=C/C(C)=C/C=C/C(C)=C/C(=O)OC)n(C)c1C	> 100 µM	> 100 µM	> 100 µM	> 100 µM	> 100 µM	–	> 100 µM	–	> 100 µM	–	> 100 µM	> 100 µM	–	> 100 µM	–	–	–	–	–	–
NC(=O)/C(=C\c1ccncc1)c1cccc2ccccc12	> 100 µM	> 100 µM	> 100 µM	> 100 µM	> 100 µM	–	> 100 µM	–	> 100 µM	–	> 100 µM	> 100 µM	–	> 100 µM	–	–	–	–	–	–
C[N+](C)(C)CC(=O)N/N=C(\CCC(=O)NCCc1ccccc1)CC(=O)c1ccccc1	> 100 µM	> 100 µM	> 100 µM	> 100 µM	> 100 µM	–	> 100 µM	–	> 100 µM	–	> 100 µM	> 100 µM	–	> 100 µM	–	–	–	–	–	–
CCOC(=O)C[C@@H](C)[C@]1(C(=O)OC)CCCC1=O	> 100 µM	> 100 µM	> 100 µM	> 100 µM	> 100 µM	–	> 100 µM	–	> 100 µM	–	> 100 µM	> 100 µM	–	> 100 µM	–	–	–	–	–	–
COc1cc(Br)c(CC2(C#N)c3ccccc3C3C(N2C(=O)c2ccccc2)C3(Cl)Cl)cc1OC (stereo unspecified)	> 65.5 µM	> 65.5 µM	> 65.5 µM	> 65.5 µM	> 65.5 µM	–	> 65.5 µM	–	> 65.5 µM	–	> 65.5 µM	> 65.5 µM	–	> 65.5 µM	–	–	–	–	–	–
O=C1Nc2cc(Cl)ccc2N=CC1NC(=O)C(c1ccccc1)c1ccccc1Cl (stereo unspecified)	> 100 µM	> 100 µM	> 100 µM	> 100 µM	> 100 µM	–	> 100 µM	–	> 100 µM	–	> 100 µM	> 100 µM	–	> 100 µM	–	–	–	–	–	–
COc1ccccc1-c1cc(/C=C2\C(=O)Nc3ncc(Br)cc32)cc(Br)c1O	> 25 µM	> 25 µM	> 25 µM	> 25 µM	> 25 µM	> 19.1 µM	> 25 µM	4.43 µM	> 25 µM	6.1 µM	> 23.3 µM	> 25 µM	9.76 µM	> 25 µM	9.95 µM	12.2 µM	> 19.3 µM	11.2 µM	11.8 µM	8.89 µM
C=C(C)[C@@H]1CC[C@]2(C(N)=O)CC[C@]3(C)[C@H](CC[C@@H]4[C@@]5(C)CC[C@H](O)C(C)(C)[C@@H]5CC[C@]43C)[C@@H]12	7.59 µM	4.61 µM	3.4 µM	18.2 µM	5.39 µM	3.12 µM	> 100 µM	3.2 µM	11.9 µM	3.13 µM	16.3 µM	36.8 µM	4.49 µM	> 100 µM	2.79 µM	2.03 µM	1.78 µM	2.96 µM	2.11 µM	7.63 µM
CCNCCC1(CC)C(=O)NC(=O)NC1=O	> 100 µM	> 100 µM	> 100 µM	> 100 µM	> 100 µM	–	> 100 µM	–	> 100 µM	–	> 100 µM	> 100 µM	> 100 µM	> 100 µM	–	–	–	–	–	–
Nc1nc(Cl)cc(NCCCCCNc2cc(Cl)nc(N)n2)n1	> 100 µM	> 100 µM	> 100 µM	> 100 µM	> 100 µM	–	> 100 µM	–	> 100 µM	–	> 100 µM	> 100 µM	–	> 100 µM	–	–	–	–	–	–
C=CCCOC(=O)CO[N+](=O)[O-]	> 100 µM	> 100 µM	> 100 µM	> 100 µM	> 100 µM	–	> 100 µM	–	> 100 µM	–	> 100 µM	> 100 µM	–	> 100 µM	–	–	–	–	–	–
O=c1[nH]cc(/C=N\Nc2ccccc2)c(=O)[nH]1	> 100 µM	> 100 µM	> 100 µM	> 100 µM	> 100 µM	–	> 100 µM	–	> 100 µM	–	> 100 µM	> 100 µM	–	> 100 µM	–	–	–	–	–	–
COc1cc(OC)c2ssc3c(OC)cc(OC)c4ssc1c2-c43	> 100 µM	> 100 µM	> 100 µM	> 100 µM	> 100 µM	–	> 100 µM	–	> 100 µM	–	> 100 µM	> 100 µM	–	> 100 µM	–	–	–	–	–	–
